Laboratory results as given in the METLIN SMRT retention time set (Domingo-Almenara et al. 2019).

Assay: gradient 5% acetonitrile 3 min, to 50% in 2 min, to 85% in 15 min, held 3 min, 100 µL/min
Details: column: Zorbax Extend-C18 2.1 x 50 mm; eluents: water / acetonitrile, 0.1% formic acid
Method in brief: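 The mobile phases were water and acetonitrile, each with 0.1% formic acid, pumped at 100 μL/min through a Zorbax Extend-C18 column (2.1 × 50 mm, 1.8 μm). Pure standards were injected as mixtures of ~100 molecules and detected by a quadrupole time-of-flight mass spectrometer in positive and negative ionization mode. Retention time came from computationally picked adduct peaks, each inspected by hand.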

RP-LC retention time [s] | SMILES
595 | COC(=O)c1c(C)[nH]c(C(=O)N2CCC(CC(=O)NCc3ccc(N(C)C)cc3)CC2)c1C
774 | O=C(Cn1cc(-c2nnco2)c2ccccc21)NCc1cccc(Br)c1
903 | CCOC(=O)c1ccc(NC(=O)Cn2c(=O)cc(-c3nc(C)no3)c3ccccc32)cc1
1060 | Cc1ccc(F)cc1NC(=O)c1cnc(-c2ccc(F)cc2)nc1-c1ccncc1
712 | CC(C)c1noc(-c2cccnc2N2CCCN(Cc3ccc(F)cc3)CC2)n1
824 | C=CCn1c(C)c(CC(=O)NC(C)CC)c(=O)n2nc(-c3ccc(C)cc3)nc12 (centres undefined)
712 | Cc1cc(NC(=O)C2CCN(C(=O)c3cc(-c4ccco4)on3)CC2)no1
943 | COCCn1cc(C(=O)N2CCCc3ccccc32)c2nn(-c3ccccc3)c(=O)c-2c1
948 | Cc1nc(C2(C)CCN(S(=O)(=O)c3cc(F)ccc3C)CC2)no1
913 | O=C(C1=CN(c2ccc(Oc3ccccc3)cc2)c2ccccc2S1(=O)=O)N1CCOCC1
1220 | COC(=O)c1ccc(NC(=O)N2CC(C)Oc3ccc(C)cc32)cc1 (centres undefined)
884 | CSc1cccc(NC(=O)N2CCC(C)(C(=O)NCc3ccc(F)cc3)CC2)c1
643 | O=C(NCCCN1CCN(c2ccccc2)CC1)C1CCCN(c2nc3cccnc3s2)C1 (centres undefined)
1140 | CC(C)(C)c1cc(C(=O)NCc2ccc(F)cc2)nc2ccnn12
851 | CS(=O)(=O)Nc1ccc(C2(C(=O)NCc3cccs3)CCCCC2)cc1
1050 | C=Cc1ccc(Cn2nc3c(S(=O)(=O)N4CCc5ccccc5C4)cccn3c2=O)cc1
948 | CCCn1ccc2sc(C)c(C(=O)NCc3ccc(C)cc3)c2c1=O
769 | O=C(NCCc1csc2nc(-c3cccs3)nn12)c1ccc(Br)o1
615 | COc1ccc(OC)c(S(=O)(=O)N2CCCC(C(=O)NCc3ccccn3)C2)c1 (centres undefined)
743 | Cc1ccc(-c2ccc(N3CCN(c4ccccn4)CC3)nn2)cc1S(=O)(=O)N1CCC(C)CC1

RP-LC retention time [s] | SMILES
782 | COC1CCC12CCN(C(=O)Nc1ccccc1)CC2 (centres undefined)
765 | COc1cc(-n2nnc(C(=O)NCc3ccco3)c2N)ccc1Cl
911 | COC(=O)Cn1nc2c(-c3nc(-c4ccc(Cl)cc4)no3)cccn2c1=O
728 | Cc1ccc(CNC(=O)c2ccc(CN3CCN(C4CCCC4)C(=O)C3=O)cc2)o1
1280 | CCCOc1nc2ccccc2nc1N1CCCC(C(=O)N2CCN(c3ccc(OC)cc3)CC2)C1 (centres undefined)
735 | CCOC(=O)N1CCN(C(=O)c2cc(-c3ccco3)on2)CC1
590 | CN(C)CCNC(=O)c1cc(N2CCCC2)n2nccc2n1
606 | O=C([C@@H]1COCC(=O)N1Cc1ccccc1)N1CCN(Cc2ccc3c(c2)OCO3)CC1
747 | O=C(CSc1nnc(NC(=O)C2CCCCC2)s1)Nc1nccs1
711 | COc1ccc(CNC(=O)C2c3ccccc3CC(=O)N2C)cc1 (centres undefined)
632 | COc1ccc(C2c3sc(=O)[nH]c3SC3C(=O)N(CC(=O)O)C(=O)C32)cc1 (centres undefined)
853 | COc1ccc(CC(=O)N2CCCC2c2nc(-c3ccccc3OC)no2)cc1 (centres undefined)
957 | CN(C)S(=O)(=O)c1ccc2c(c1)N(CC(=O)NCc1cccc(Cl)c1)C(=O)C1CCCCN21 (centres undefined)
716 | CCSc1nnc(-c2nn(C)c3c2CN(C(=O)c2ccccc2)CC3)n1C
590 | COCCc1noc(-c2ccccc2OC2CNC2)n1
701 | O=C1CCN(S(=O)(=O)c2ccccc2)CCCN(C(=O)Nc2ccc3c(c2)OCCO3)CCN1
872 | O=C(Nc1ccc2c(c1)CCC2)C1CCN(C(=O)c2ncn3c2COC(c2ccc(F)cc2)C3)CC1 (centres undefined)
743 | O=c1n(Cc2cc(F)cc(F)c2)nc2c(S(=O)(=O)N3CCOCC3)cccn12
674 | Cc1ccc(F)cc1NC(=O)Cn1cnc2nc(N3CCC(C(=O)NC4CC4)CC3)sc2c1=O
585 | CN1CCC(NC(=O)c2ccc(-n3cc(CNC(=O)C4CCC4)cn3)cc2)CC1

The remaining lines, values behind:

SMILES | RP-LC retention time [s]
COC(=O)c1ccccc1NC(=O)N1CCC(C(=O)NCc2csc(-c3ccccc3)n2)CC1 | 902
Cc1nc2c(sc3nc(-c4ccccc4)ccc32)c(=O)n1CC(=O)Nc1ccc(Cl)cc1 | 1120
CCCCCNC(=O)C1CCCN(c2ncc(-c3ccccc3)cn2)C1 (centres undefined) | 1090
CCn1cc(-c2ccccc2)cc1C(=O)NC(C)c1ccccn1 (centres undefined) | 749
Cc1cc(NC(=O)Cn2ccn3nc(-c4ccccc4)c(CO)c3c2=O)n[nH]1 | 644
CC(Cc1ccco1)NC(=O)C1CCN(S(C)(=O)=O)CC1 (centres undefined) | 632
CCn1cc(-c2nc(CC(=O)Nc3ccc(C)cc3F)cs2)c2cccnc21 | 865
COc1ccc(S(=O)(=O)Nc2cc(N3CCCS3(=O)=O)ccc2OC)cc1F | 721
CCOc1ccccc1C(=O)NCCc1csc(-c2cccnc2)n1 | 668
CCOC(=O)c1c(C)oc2nc(C)nc(NCCc3ccc(C)cc3)c12 | 1330
COC(=O)C1=C(C)N(Cc2ccccc2)C(=O)NC1c1ccccc1[N+](=O)[O-] (centres undefined) | 856
O=C1COc2ccc(S(=O)(=O)N3CCC(C(=O)NC4CCCc5ccccc54)CC3)cc2N1 (centres undefined) | 814
COc1ccc(C(=O)Nc2nc(CC(=O)Nc3nc4c(C)cccc4s3)cs2)cc1 | 1010
Cc1cc(=O)n(CC(=O)Nc2cccc(F)c2)c(N)n1 | 603
O=C(c1cnn2cccnc12)N1CCCC1c1ccccc1Cl (centres undefined) | 763
COc1cccc(NC(=O)c2[nH]c3cc(C)sc3c2CN2CCOCC2)c1 | 685
Cc1cc(C(F)(F)F)nn1CC(=O)NCCn1c(C)cnc1C1CCC1 | 634
Cc1ccc(NC(=O)c2cc3c(s2)CN(C2CCCC2)C3)c(C)c1 | 663
Cc1nc(-c2cn(C)c3ncccc23)sc1C(=O)NCc1ccc(F)cc1Cl | 990
COCCN(CC(=O)N1CCc2sccc2C1COc1ccc(Cl)cc1)C(=O)COC (centres undefined) | 839
CC1=C(c2cccc(Cl)c2)S(=O)(=O)N=C1N1CCCN(C(=O)CC(C)C)CC1 | 868
O=S(=O)(c1ccc(Br)cc1)N1CCCC1c1nc(-c2ccc(F)cc2)no1 (centres undefined) | 1160
CCCn1ncc(N2CCC(C(=O)NCCc3cccs3)CC2)cc1=O | 714
CCn1cc(S(=O)(=O)Nc2ccc(OC)c(Cl)c2)c2cccnc21 | 832
CCCNC(=O)C1CCCN(c2cnc3nc(CC)c(CC)nc3c2)C1 (centres undefined) | 755

SMILES | RP-LC retention time [s]
CCc1nc(-n2cccc2)sc1C(=O)Nc1ccc(Cl)cc1 | 1180
O=C(NCc1csc(-c2cccs2)n1)C1CCN(S(=O)(=O)c2ccccc2)CC1 | 870
Cc1cnc(C2CC2)n1CCNC(=O)C1CC=CC1 | 562
CCN1CCCC1CNC(=O)Cn1c2ccccc2c2cnn(C)c(=O)c21 (centres undefined) | 554
CC(C(=O)NCCc1ccccc1)n1cnc2nc(N3CCCCC3)ncc2c1=O (centres undefined) | 810
O=C(NCc1ccc(F)cc1)C1CC(=O)N(c2n[nH]c3cccc(F)c23)C1 (centres undefined) | 707
Cc1ccc(-c2nc(-c3ccc4c(c3)nnn4CCN(C)C)no2)cc1F | 708
O=C(c1ccc(Br)cc1)N1CCC(n2c(-c3ccoc3)nc3cccnc32)C1 (centres undefined) | 783
Cc1ccc(C)c(NS(=O)(=O)c2c(C)sc(C)c2-c2n[nH]c(C)c2C)c1 | 1140
CCn1cc(-c2ccc(C)cc2)cc1C(=O)NC1CC1 | 991
O=S(=O)(c1ccc(Cl)cc1)N1CCC(c2nc(-c3cccc(-c4ccn[nH]4)c3)no2)CC1 | 994
COc1ccc(Cl)cc1C(=O)N1CCN(c2cc(C)nc(N3CCCC3)n2)CC1 | 665
COc1ccccc1NC(=O)c1cn2c(n1)CCCC2 | 622
CC1CCN(c2cc(-n3cnc(C(=O)N4CCC5(CC4)OCCO5)c3)ncn2)CC1 | 834
COc1cc(C)c(Br)cc1S(=O)(=O)N1CCC(C(N)=O)CC1 | 697
O=C(O)c1nnn(-c2cccc(Cl)c2)c1-c1ccncc1 | 657
Cc1ccc(C(=O)N2CCCC2c2nc(-c3cccc(Cl)c3)no2)cc1C (centres undefined) | 1200
CC(=O)N1CCc2cc(N3CC(C(=O)Nc4cccc(F)c4)CC3=O)ccc21 (centres undefined) | 710
Cc1ccc(NC(=O)C2CCCN(c3nnc4cccc(C)n34)C2)cc1F (centres undefined) | 753
O=C(NC1CCCCC1)C1CCc2nc(N3CCCCC3)ncc2C1 (centres undefined) | 723
O=C(CCc1nc(-c2ccc(N3CCCC3)cc2)no1)NCCCN1CCOCC1 | 655
Cc1cc(CN2CCC(CNC(=O)c3ccc(S(=O)(=O)N(C)C)cc3)CC2)c(C)o1 | 574
O=C(NCc1ccco1)c1cc2c(s1)CCN(C(=O)c1ccccc1)C2 | 758
Cc1ccc(-c2csc(Nc3ccc(Br)cn3)n2)cc1C | 1340
